Test results published in ChEMBL document CHEMBL1127196, “The use of synthetic peptide combinatorial libraries for the determination of peptide ligands in radio-receptor assays: Opioid peptides” (Bioorg Med Chem Lett, 1993).

Each molecule was assayed against Mu-type opioid receptor (Rattus norvegicus, UniProt P33535) (assay: Concentration required for 50% inhibition of [3H]DAGO binding to mu opioid receptor in crude rat brain homogenates).
Assay type: tissue-based

Mu-type opioid receptor, sequence (P33535 whole entry): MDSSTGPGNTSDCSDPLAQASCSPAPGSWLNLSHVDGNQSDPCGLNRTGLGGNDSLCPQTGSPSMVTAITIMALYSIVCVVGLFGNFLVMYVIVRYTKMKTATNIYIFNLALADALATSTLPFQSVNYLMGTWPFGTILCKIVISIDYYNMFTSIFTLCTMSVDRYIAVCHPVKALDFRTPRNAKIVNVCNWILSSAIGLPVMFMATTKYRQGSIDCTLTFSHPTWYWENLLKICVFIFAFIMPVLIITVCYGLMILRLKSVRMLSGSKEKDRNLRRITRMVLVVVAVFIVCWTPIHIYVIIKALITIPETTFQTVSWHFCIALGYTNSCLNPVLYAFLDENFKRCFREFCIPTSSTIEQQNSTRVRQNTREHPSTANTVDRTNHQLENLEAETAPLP

Molecule | IC50 [nM]
CSCC[C@H](NC(=O)[C@H](Cc1ccccc1)N(N)C(=O)CNC(=O)CN(N)C(=O)[C@H](Cc1ccc(ON)cc1)NN)C(=O)N[C@H](C(N)=O)C(C)C | 107
CSCC[C@H](NC(=O)[C@H](Cc1ccccc1)NC(O)CNC(=O)CNC(=O)[C@@H](N)Cc1ccc(O)cc1)C(N)=O (some centres not stated) | 34
H-YGGFLA-NH2 | 60
H-YGGFLD-NH2 | 214
H-YGGFLE-NH2 | 315
H-YGGFLF-NH2 | 381
H-YGGFLG-NH2 | 59
H-YGGFLH-NH2 | 141
H-YGGFLI-NH2 | 168
H-YGGFLK-NH2 | 201
H-YGGFLL-NH2 | 98
H-YGGFLM-NH2 | 112
H-YGGFLN-NH2 | 78
H-YGGFLP-NH2 | 108
H-YGGFLQ-NH2 | 75
H-YGGFLR-NH2 | 158
H-YGGFLS-NH2 | 65
H-YGGFLT-NH2 | 65
H-YGGFLV-NH2 | 189

Molecule | IC50 [nM]
H-YGGFLY-NH2 | 77
H-YGGFMA-NH2 | 28
H-YGGFMD-NH2 | 167
H-YGGFME-NH2 | 204
H-YGGFMF-NH2 | 223
H-YGGFMG-NH2 | 35
H-YGGFMH-NH2 | 37
H-YGGFMI-NH2 | 80
H-YGGFMK-NH2 | 41
H-YGGFML-NH2 | 35
H-YGGFMM-NH2 | 30
H-YGGFMN-NH2 | 28
H-YGGFMP-NH2 | 57
H-YGGFMQ-NH2 | 40
H-YGGFMR-NH2 | 46
H-YGGFMS-NH2 | 34
H-YGGFMT-NH2 | 41
H-YGGFMY-NH2 | 39
